Structures are written as SMILES. Converted amounts (≈) assume the structure as drawn. Some results are limits rather than exact numbers.

Some test systems named below: Cupriavidus necator H16; Escherichia coli JM109; Candida albicans SC5314; Candida krusei IFM 56881; Escherichia coli ML-35p; Candida glabrata 090902; Nocardia asteroides; Aerococcus viridans; Bacillus megaterium; Botrytis cinerea; Enterobacter cloacae; Escherichia coli 363; Fusarium oxysporum; Klebsiella pneumoniae; Micrococcus luteus; Penicillium crustosum; Salmonella typhimurium; Staphylococcus aureus; Vibrio alginolyticus; Vibrio anguillarum; Vibrio harveyi; Vibrio penaeicida.

What all share (assay): ≥ marks a high value that may be exact or a test limit, other limits are often not marked, values filed in µg/mL are converted to µM
Assay [1] has as its system Escherichia coli BL21(DE3).
The test system of assay [2] is Pseudomonas putida GPp104.
The test system of assay [3] is Bacillus subtilis VKM B-886.
Assay [4] has as its system Candida parapsilosis ATCC 22019.
For assay [5], the system named is Cryptococcus neoformans var. grubii H99.
In assay [6] the test system is Klebsiella pneumoniae CI 287.
Assay [7] has as its system Micrococcus luteus VKM B-1314.
For assay [8], the system named is Pseudomonas aeruginosa PAO1.
Assay [9] has as its system Staphylococcus aureus 209P.
The test system of assay [10] is Staphylococcus aureus ATCC 29213.
Assay [11] concerns Candida albicans ATCC 37092.
For assay [12], the system named is Escherichia coli ATCC 25922.
The test system of assay [13] is Enterobacter cloacae CGMCC 1.57.
Assay [14] concerns Enterococcus faecalis 981.
The test system of assay [15] is Enterococcus faecium 091299.
Assay [16] relates to Psychrobacter faecalis X29.
Assay [17] concerns Staphylococcus aureus ATCC 25923.
Assay [18] has as its system Pectobacterium carotovorum.
In assay [19] the test system is Staphylococcus aureus A170.
Assay [20] concerns Staphylococcus epidermidis.

As a reminder, the MIC is the lowest concentration that inhibits growth of the organism. High values mean weaker potency, low ones greater potency. `CC[C@H](C)[C@H](NC(=O)[C@H](Cc1ccc(O)cc1)NC(=O)[C@@H](NC(=O)[C@@H]1CCCN1C(=O)[C@H](CCCN=C(N)N)NC(=O)[C@H](CCCN=C(N)N)NC(=O)[C@@H](NC(=O)[C@@H](N)C(C)C)C(C)C)C(C)C)C(=O)N1CCC[C@H]1C(=O)N[C@@H](CCC(N)=O)C(=O)N1CCC[C@H]1C(=O)N[C@@H](CCCN=C(N)N)C(=O)N1CCC[C@H]1C(=O)N1CCC[C@H]1C(=O)N[C@@H](Cc1cnc[nH]1)C(=O)N1CCC[C@H]1C(=O)N[C@@H](CCCN=C(N)N)C(=O)N[C@@H](CC(C)C)C(=O)O` [VVRRPVYIPQPRPPHPRL]: the minimum inhibitory concentration (MIC) is no less than 50 µM in the assay with Cupriavidus necator H16, 1.25 µM (≈ 2.72 µg/mL) in [1], 12.5 µM (≈ 27.2 µg/mL) against Escherichia coli JM109 and 25 µM (≈ 54.4 µg/mL) in [2].
Turning to `CC[C@H](C)[C@@H]1NC(=O)CNC(=O)[C@H](CCCN=C(N)N)NC(=O)[C@H](Cc2ccc(O)cc2)NC(=O)[C@@H]2CSSC[C@H](NC1=O)C(=O)N[C@@H](Cc1ccc(O)cc1)C(=O)N[C@@H](CCCN=C(N)N)C(=O)N[C@@H](CCCCN)C(=O)N[C@H](C(=O)N[C@@H](CCCN=C(N)N)C(=O)O)CSSC[C@H](NC(=O)[C@H](Cc1c[nH]c3ccccc13)NC(=O)[C@@H](N)CCCCN)C(=O)N[C@@H](Cc1ccccc1)C(=O)N[C@@H](CCCN=C(N)N)C(=O)N[C@@H](C(C)C)C(=O)N2` [KWCFRVCYRGICYRKCR], the minimum inhibitory concentration (MIC) was 1 µM (≈ 2.24 µg/mL) in assay [3]; 14.3 µM (≈ 31.9 µg/mL) with Candida albicans SC5314; 28.6 µM (≈ 63.9 µg/mL) against Candida krusei IFM 56881; 7.14 µM (≈ 16 µg/mL) in assay [4]; 1.79 µM (≈ 4 µg/mL) in [5]; 0.062 µM (≈ 0.139 µg/mL) in the assay on Escherichia coli ML-35p. For the same compound, the minimal inhibitory concentration (MIC) amounted to 0.5 µM (≈ 1.12 µg/mL) in [6]; 2 µM (≈ 4.47 µg/mL) in assay [7]; 0.5 µM (≈ 1.12 µg/mL) in [8]; 0.5 µM (≈ 1.12 µg/mL) in assay [9]; 16 µM (≈ 35.8 µg/mL) in assay [10].
In the case of `CC(C)C[C@H](NC(=O)[C@@H]1CCCN1C(=O)[C@H](CCCN=C(N)N)NC(=O)[C@@H]1CCCN1C(=O)[C@H](CCCN=C(N)N)NC(=O)[C@@H]1CCCN1)C(=O)N1CCC[C@H]1C(=O)N[C@@H](Cc1ccccc1)C(=O)N1CCC[C@H]1C(=O)N[C@@H](CCCN=C(N)N)C(=O)N1CCC[C@H]1C(=O)NCC(=O)O` [PRPRPLPFPRPG], the results for the MIC in assay [11], in [12] and in [10] were no less than 500 µM, greater than 500 µM and greater than 500 µM, respectively.
`CC[C@H](C)[C@H](NC(=O)[C@H](C)NC(=O)[C@@H](NC(=O)[C@@H]1CCCN1C(=O)[C@H](CC(C)C)NC(=O)[C@@H](NC(=O)[C@H](Cc1cnc[nH]1)NC(=O)[C@H](C)NC(=O)[C@H](C)NC(=O)[C@@H](NC(=O)[C@H](CCCCN)NC(=O)[C@H](CC(C)C)NC(=O)[C@@H](NC(=O)[C@H](C)NC(=O)[C@@H]1CCCN1C(=O)[C@H](CC(C)C)NC(=O)[C@@H](N)Cc1ccccc1)C(C)C)C(C)C)[C@@H](C)CC)[C@@H](C)O)C(=O)N[C@H]1CSSC[C@@H](C(=O)O)NC(=O)[C@H](CCCN=C(N)N)NC(=O)[C@H](CCCN=C(N)N)NC(=O)[C@H](CO)NC(=O)[C@H]([C@@H](C)CC)NC(=O)[C@H](C)NC1=O` [FLPAVLKVAAHILPTAICAISRRC]: the MIC with Candida glabrata 090902 was 12.5 µM (≈ 32 µg/mL); in [13], no less than 100 µM; in assay [14], 3.1 µM (≈ 7.94 µg/mL); in [15] it was no less than 50 µM; in the assay with Nocardia asteroides it was 3.1 µM (≈ 7.94 µg/mL); in assay [16], 25 µM (≈ 64.1 µg/mL). Besides, the MIC in assay [17] came out at 3.1 µM (≈ 7.94 µg/mL).
Consider `CSCC[C@H](NC(=O)[C@H](CCCN=C(N)N)NC(=O)CNC(=O)[C@H](CCCCN)NC(=O)[C@H](Cc1ccc(O)cc1)NC(=O)[C@H](Cc1ccc(O)cc1)NC(=O)[C@@H](NC(=O)[C@H](CCC(N)=O)NC(=O)[C@H](Cc1ccccc1)NC(=O)[C@H](CCCN=C(N)N)NC(=O)[C@H](CCCCN)NC(=O)[C@H](CC(C)C)NC(=O)[C@H](Cc1ccc(O)cc1)NC(=O)[C@@H]1CCCN1C(=O)[C@@H](N)CCCCN)C(C)C)C(=O)N[C@@H](Cc1c[nH]c2ccccc12)C(=O)N[C@@H](CS)C(=O)O` [KPYLKRFQVYYKGRMWC], for which the minimum inhibitory concentration (MIC) against Aerococcus viridans was 6.25 µM (≈ 14.2 µg/mL); against Bacillus megaterium, 3.12 µM (≈ 7.07 µg/mL); in the assay on Botrytis cinerea it was 12.5 µM (≈ 28.3 µg/mL); with Enterobacter cloacae, 25 µM (≈ 56.7 µg/mL); in the assay with Escherichia coli 363 it was 25 µM (≈ 56.7 µg/mL); in the assay on Fusarium oxysporum, 12.5 µM (≈ 28.3 µg/mL). Further, the MIC with Klebsiella pneumoniae was 25 µM (≈ 56.7 µg/mL); in the assay with Micrococcus luteus, 6.25 µM (≈ 14.2 µg/mL); in assay [18], no less than 50 µM; in the assay on Penicillium crustosum, 25 µM (≈ 56.7 µg/mL); against Salmonella typhimurium, 25 µM (≈ 56.7 µg/mL); against Staphylococcus aureus it was 50 µM (≈ 113 µg/mL). The MIC against Vibrio alginolyticus was 25 µM (≈ 56.7 µg/mL); in the assay on Vibrio anguillarum it was no less than 100 µM; with Vibrio harveyi it was no less than 50 µM; with Vibrio penaeicida, no less than 100 µM.
With `CC[C@H](C)[C@H](NC(=O)[C@@H](NC(=O)[C@@H](NC(=O)[C@@H]1CCCN1C(=O)[C@H](CC(C)C)NC(=O)[C@@H](N)CC(C)C)[C@@H](C)CC)C(C)C)C(=O)N[C@@H](CC(N)=O)C(=O)N[C@@H](CC(C)C)C(=O)N[C@@H](CC(C)C)C(=O)N[C@@H](CCCCN)C(=O)N[C@@H](CO)C(=O)N[C@@H](CC(C)C)C(=O)N[C@@H](CC(C)C)C(=O)O` [LLPIVINLLKSLL], the figures for the MIC in assay [19] and in assay [20] were 6.9 µM (≈ 10 µg/mL) and 13.8 µM (≈ 20 µg/mL), respectively.

These data come from DBAASP.
